Here are results for 41 compounds from patent US10676431B2, “Phenylpyrrolidinone formyl peptide 2 receptor agonists” (BRISTOL-MYERS SQUIBB COMPANY, priority 2018, dated 2020).

pEC50: −log10 of the molar value. A value given as a limit tells only on which side of the number the result lay.

For orientation: pEC50 means the EC50 on a negative log10 scale, so that one unit is a factor of ten.

One assay concerns the target human FPR1 (Homo sapiens (Human), UniProt P21462). The experiment in a line: FPR1 cyclic adenosine monophosphate (cAMP) assay. The assay is classed as cell-based. The following applies: CHO cells overexpressing human FPR1; forskolin 10 μM, IBMX 200 μM; inhibition of cAMP production, HTRF; read-out: hFPR1 cAMP EC50. Put shortly:
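CHO cells overexpressing human FPR1 (4,000 per well) were incubated 30 min at room temperature with compound (0.020 nM–100 μM, 1% DMSO), 10 μM forskolin and 200 μM IBMX. Intracellular cAMP was read by HTRF. Inhibition of cAMP production was fitted to a 4-parameter logistic equation.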
(Cyclic AMP is a second messenger, typically raised through Gs and lowered through Gi signalling.)

A further assay has as its target human FPR2 (Homo sapiens (Human), UniProt P25090). Nature of the assay: FPR2 cyclic adenosine monophosphate (cAMP) assay. The following applies: CHO cells overexpressing human FPR2; forskolin 5 μM, IBMX 200 μM; inhibition of cAMP production, HTRF; read-out: hFPR2 cAMP2 EC50. The assay is classed as cell-based. An outline of the steps:
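CHO cells overexpressing human FPR2 (2,000/well) or FPR1 (4,000/well) incubated 30 min at room temperature with compound (0.020 nM–100 μM, 1% DMSO), IBMX 200 μM and forskolin (5 μM for FPR2, 10 μM for FPR1). Intracellular cAMP read by HTRF against a cAMP standard curve; inhibition of cAMP production fitted to a 4-parameter logistic.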

human FPR1, sequence (P21462 whole entry): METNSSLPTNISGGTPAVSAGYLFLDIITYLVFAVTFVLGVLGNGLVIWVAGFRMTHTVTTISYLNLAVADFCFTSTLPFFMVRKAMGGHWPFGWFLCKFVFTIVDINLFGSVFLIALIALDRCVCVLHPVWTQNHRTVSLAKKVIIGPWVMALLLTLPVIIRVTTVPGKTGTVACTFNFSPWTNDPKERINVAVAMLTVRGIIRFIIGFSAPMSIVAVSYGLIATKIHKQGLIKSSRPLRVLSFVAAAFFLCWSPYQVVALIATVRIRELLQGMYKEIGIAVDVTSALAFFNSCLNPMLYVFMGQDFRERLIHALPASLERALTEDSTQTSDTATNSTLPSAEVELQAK
human FPR2, sequence (P25090 whole entry): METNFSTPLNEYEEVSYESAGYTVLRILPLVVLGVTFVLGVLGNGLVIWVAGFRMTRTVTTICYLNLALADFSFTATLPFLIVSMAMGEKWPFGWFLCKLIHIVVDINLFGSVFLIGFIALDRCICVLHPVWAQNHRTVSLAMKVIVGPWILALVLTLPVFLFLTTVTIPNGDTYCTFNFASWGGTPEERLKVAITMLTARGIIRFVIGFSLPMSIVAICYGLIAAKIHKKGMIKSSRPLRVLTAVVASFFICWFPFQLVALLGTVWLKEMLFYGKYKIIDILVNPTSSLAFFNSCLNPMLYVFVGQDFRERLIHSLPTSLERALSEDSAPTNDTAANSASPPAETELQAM

As to `CP(C)(=O)c1ncccc1-c1ccc(N2CC[C@@H](NC(=O)Nc3ccc(C(F)(F)F)cc3F)C2=O)c(F)c1F` [Example 73, (R)-1-(1-(4-(2-(dimethylphosphoryl)pyridin-3-yl)-2,3-difluorophenyl)-2-oxopyrrolidin-3-yl)-3-(2-fluoro-4-(trifluoromethyl)phenyl)urea], the pEC50 at human FPR1 is 6.77; on human FPR2 it was 9.05.

With `CP(C)(=O)c1ncccc1-c1ccc(N2CC[C@@H](NC(=O)Nc3ccc(Cl)cc3F)C2=O)c(F)c1F` [Example 74], the results for the pEC50 at human FPR1 and on human FPR2 were 6.85 and 8.66, respectively.

Take `CCP(=O)(CC)c1ccccc1-c1ccc(N2CC[C@@H](NC(=O)Nc3ccc(Cl)cc3F)C2=O)c(F)c1F` [Example 75]: the pEC50 is 5.93 on human FPR1 and 8.47 on human FPR2.

Take `CP(C)(=O)c1ccccc1-c1cc(F)c(N2CC[C@@H](NC(=O)Nc3ccc(C(F)(F)F)cc3F)C2=O)c(F)c1` [Example 76]: the pEC50 was 5.68 on human FPR1 and 8.39 at human FPR2.

As for `CP(C)(=O)c1ccccc1-c1ccc(N2CC[C@@H](NC(=O)Nc3ccc(C(F)(F)F)cc3F)C2=O)c(F)c1Cl` [Example 77], the negative-log EC50 (pEC50) was 7.10 on human FPR1 and 8.92 on human FPR2.

In the case of `CP(C)(=O)c1ccccc1-c1ccc(N2CC[C@@H](NC(=O)Nc3ccc(Cl)cc3F)C2=O)c(Cl)c1Cl` [Example 78], the values for the negative logarithm of the EC50 (pEC50) at human FPR1 and at human FPR2 were 7.35 and 8.92, respectively.

In the case of `O=C(Nc1ccc(Cl)cc1F)N[C@@H]1CCN(c2ccc(-c3cnn(C(F)F)c3)c(F)c2F)C1=O` [Example 79], the pEC50 at human FPR1 was under 5.00; on human FPR2, 7.41.

Consider `CP(C)(=O)c1ccccc1-c1ccc(N2CC[C@@H](NC(=O)Nc3ccc(C(F)(F)F)cc3F)C2=O)c(Cl)c1Cl` [Example 80], for which the pEC50 at human FPR1 is 7.07; at human FPR2, 8.85.

As to `CP(C)(=O)c1ccccc1-c1ccc(N2CC[C@@H](NC(=O)Nc3ccc(Cl)cc3F)C2=O)c(F)c1Cl` [Example 81], the negative logarithm of the EC50 (pEC50) at human FPR1 is 7.57; at human FPR2, 9.28.

On to `O=C(Nc1ccc(Cl)cc1F)N[C@@H]1C[C@@H](CO)N(c2ccc(-c3ccccc3F)c(F)c2F)C1=O` [Example 82], for which the results for the negative logarithm of the EC50 (pEC50) on human FPR1 and on human FPR2 were 6.11 and 8.60, respectively.

Consider `CP(C)(=O)c1ccccc1-c1ccc(N2CC[C@@H](NC(=O)Nc3ccc(Cl)cc3F)C2=O)c(F)c1C(F)(F)F` [Example 83], for which the pEC50 is 9.00 on human FPR1 and 9.39 at human FPR2.

With `CP(C)(=O)c1ncncc1-c1ccc(N2CC[C@@H](NC(=O)Nc3ccc(Cl)cc3F)C2=O)c(F)c1F` [Example 84], the values for the pEC50 at human FPR1 and at human FPR2 were 6.55 and 8.22, respectively.

For `CP(C)(=O)c1c(F)cccc1-c1ccc(N2CC[C@@H](NC(=O)Nc3ccc(Cl)cc3F)C2=O)c(F)c1Cl` [Example 85], the pEC50 is 8.29 on human FPR1 and 9.21 at human FPR2.

Consider `CP(C)(=O)c1c(F)cccc1-c1ccc(N2CC[C@@H](NC(=O)Nc3ccc(C(F)(F)F)cc3F)C2=O)c(F)c1Cl` [Example 86], for which the figures for the pEC50 on human FPR1 and at human FPR2 were 7.68 and 9.07, respectively.

In the case of `CP(C)(=O)c1ccccc1-c1ccc(N2CC[C@@H](NC(=O)Nc3ccc(Cl)cc3F)C2=O)c(F)c1OC(F)(F)F` [Example 87], the pEC50 at human FPR1 was 8.92; on human FPR2, 8.80.

`CP(C)(=O)c1ccccc1-c1ccc(N2CC[C@@H](NC(=O)Nc3ccc(C(F)(F)F)cc3F)C2=O)c(F)c1OC(F)(F)F` [Example 88]: the pEC50 is 8.31 at human FPR1 and 8.28 on human FPR2.

With `CP(C)(=O)c1ccccc1-c1ccc(N2CC[C@@H](NC(=O)Nc3ccc(C(F)(F)F)cc3F)C2=O)c(F)c1C1CC1` [Example 89, (R)-1-(1-(2-Cyclopropyl-2′-(dimethylphosphoryl)-3-fluoro-[1,1′-biphenyl]-4-yl)-2-oxopyrrolidin-3-yl)-3-(2-fluoro-4-(trifluoromethyl)phenyl)urea], the values for the pEC50 at human FPR1 and on human FPR2 were 7.60 and 8.36, respectively.

In the case of `COC[C@@H]1C[C@@H](NC(=O)Nc2ccc(C(F)(F)F)cc2F)C(=O)N1c1ccc(-c2ccccc2P(C)(C)=O)c(F)c1F` [Example 90], the negative-log EC50 (pEC50) at human FPR1 was 5.85; at human FPR2 it was 8.29.

Take `CP(C)(=O)c1ccccc1-c1ccc(N2CC[C@@H](NC(=O)Nc3ccc(Cl)cc3F)C2=O)c(C(F)(F)F)c1F` [Example 91, (R)-1-(4-Chloro-2-fluorophenyl)-3-(1-(2′-(dimethylphosphoryl)-2-fluoro-3-(trifluoromethyl)-[1,1′-biphenyl]-4-yl)-2-oxopyrrolidin-3-yl)urea]: the pEC50 on human FPR1 is 6.70; on human FPR2 it was 8.24.

For `CP(C)(=O)c1ccccc1-c1ccc(N2CC[C@@H](NC(=O)Nc3ccc(C(F)(F)F)cc3F)C2=O)c(C(F)(F)F)c1F` [Example 92], the pEC50 on human FPR1 is 6.66; at human FPR2 it was 8.08.

With `CP(C)(=O)c1ncncc1-c1ccc(N2CC[C@@H](NC(=O)Nc3ccc(C(F)(F)F)cc3F)C2=O)c(F)c1F` [Example 93], the negative-log EC50 (pEC50) was 6.11 on human FPR1 and 7.92 on human FPR2.

For the compound `CP(C)(=O)c1ccccc1-c1ccc(N2CC[C@@H](NC(=O)Nc3ccc(C(F)(F)F)cc3F)C2=O)c(F)c1C(F)(F)F` [Example 94], the pEC50 at human FPR1 was 7.92; on human FPR2 it was 8.74.

Take `CP(C)(=O)c1ccccc1-c1ccc(N2CC[C@@H](NC(=O)Nc3ccc(Cl)cc3F)C2=O)c(F)c1C(F)F` [Example 95]: the pEC50 at human FPR1 was 6.70; on human FPR2, 7.49.

As for `Cc1c(N2CC[C@@H](NC(=O)Nc3ccc(Cl)cc3F)C2=O)ccc(-c2ccccc2P(C)(C)=O)c1F` [Example 96], the pEC50 was 7.12 at human FPR1 and 8.54 at human FPR2.

As for `O=C(Nc1ccc(C(F)(F)F)cc1F)N[C@@H]1CCN(c2ccc(-c3cccc4c3S(=O)(=O)NC4)c(F)c2F)C1=O` [Example 97], the figures for the negative logarithm of the EC50 (pEC50) at human FPR1 and at human FPR2 were 6.96 and 8.14, respectively.

`CP(C)(=O)c1ccccc1-c1ccc(N2CC[C@@H](NC(=O)Nc3ccc(C(F)(F)F)cc3F)C2=O)c(Cl)c1F` [Example 98]: the pEC50 on human FPR1 is 6.57; on human FPR2, 8.54.

`CP(C)(=O)c1ccccc1-c1ccc(N2CC[C@@H](NC(=O)Nc3ccc(Cl)cc3F)C2=O)c(Cl)c1F` [Example 99]: the results for the negative-log EC50 (pEC50) on human FPR1 and at human FPR2 were 6.62 and 9.10, respectively.

For `CCP(=O)(CC)c1ncccc1-c1ccc(N2CC[C@@H](NC(=O)Nc3ccc(C(F)(F)F)cc3F)C2=O)c(F)c1F` [Example 100], the negative-log EC50 (pEC50) was 7.04 on human FPR1 and 8.70 at human FPR2.

`CC1(C)CN(c2ccc(-c3ccccc3P(C)(C)=O)c(F)c2F)C(=O)[C@@H]1NC(=O)Nc1ccc(C(F)(F)F)cc1F` [Example 102]: the pEC50 was 6.24 at human FPR1 and 8.77 at human FPR2.

`CC1(C)CN(c2ccc(-c3ccccc3P(C)(C)=O)c(F)c2F)C(=O)[C@@H]1NC(=O)Nc1ccc(Cl)cc1F` [Example 103]: the pEC50 is 6.46 on human FPR1 and 9.24 on human FPR2.

Consider `CP(C)(=O)c1ccccc1-c1ccc(N2CC[C@@H](NC(=O)Nc3ccc(Cl)cc3F)C2=O)c2c1OC(F)(F)O2` [Example 106], for which the negative-log EC50 (pEC50) was 8.46 at human FPR1 and 8.51 on human FPR2.

For the compound `CP(C)(=O)c1ccccc1-c1ccc(N2CC[C@@H](NC(=O)Nc3ccc(Cl)cc3F)C2=O)c(C(F)F)c1F` [Example 107], the pEC50 is 8.24 at human FPR1 and 7.96 at human FPR2.

In the case of `CC1(C)CN(c2ccc(-c3cccnc3P(C)(C)=O)c(F)c2F)C(=O)[C@@H]1NC(=O)Nc1ccc(C(F)(F)F)cc1F` [Example 110], the figures for the pEC50 on human FPR1 and on human FPR2 were 6.19 and 8.96, respectively.

Turning to `CP(C)(=O)c1ccccc1-c1ccc(N2C(=O)[C@@H](NC(=O)Nc3ccc(Cl)cc3F)C[C@H]2CO)c(F)c1F` [Example 111], the pEC50 at human FPR1 was 6.27; at human FPR2 it was 7.52.

Regarding `CP(C)(=O)c1ccccc1-c1ccc(N2C(=O)[C@H](NC(=O)Nc3ccc(Cl)cc3F)C[C@H]2CO)c(F)c1F` [Example 112, 1-(4-Chloro-2-fluorophenyl)-3-((3R,5S)-1-(2′-(dimethylphosphoryl)-2,3-difluoro-[1,1′-biphenyl]-4-yl)-5-(hydroxymethyl)-2-oxopyrrolidin-3-yl)urea], the negative logarithm of the EC50 (pEC50) is 6.41 on human FPR1 and 9.57 at human FPR2.

Regarding `CC1(C)CN(c2ccc(-c3cccnc3P(C)(C)=O)c(F)c2F)C(=O)[C@@H]1NC(=O)Nc1ccc(Cl)cc1F` [Example 113], the pEC50 at human FPR1 was 6.23; at human FPR2 it was 9.41.

Consider `CP(C)(=O)c1ccccc1-c1ccc(N2C(=O)[C@H](NC(=O)Nc3ccc(C(F)(F)F)cc3F)C[C@H]2CO)c(F)c1F` [Example 114], for which the values for the pEC50 at human FPR1 and on human FPR2 were 6.57 and 9.07, respectively.

Turning to `CC1C[C@@H](NC(=O)Nc2ccc(C(F)(F)F)cc2F)C(=O)N1c1ccc(-c2ccccc2P(C)(C)=O)c(F)c1F` (stereo partly shown) [Example 115], the pEC50 on human FPR1 is 7.26; on human FPR2, 8.92.

With `CC1C[C@@H](NC(=O)Nc2ccc(C(F)(F)F)cc2F)C(=O)N1c1ccc(-c2ccccc2P(C)(C)=O)c(F)c1F` (stereo partly shown) [Example 116], the negative logarithm of the EC50 (pEC50) was 6.05 on human FPR1 and 8.92 on human FPR2.

On to `CP(C)(=O)c1ccccc1-c1ccc(N2CC[C@@H](NC(=O)Nc3ccc(Cl)cc3F)C2=O)c(C2CC2)c1F` [Example 117], for which the pEC50 at human FPR1 is 7.08; at human FPR2, 7.89.

Regarding `COc1ncccc1-c1ccc(N2CC[C@@H](NC(=O)Nc3ccc(Cl)cc3F)C2=O)c(F)c1F` [Example 118], the negative logarithm of the EC50 (pEC50) at human FPR1 was 6.49; on human FPR2 it was 7.77.
